Data: article PMC5458555, “Conformational dynamics of dynamin-like MxA revealed by single-molecule FRET” (Nature Communications, 2017)
Changes are numbered by the printed parent chain.

How the values were obtained:
[1] = molecular target: T1, MxA^MO2 (Homo sapiens, UniProt P20591, A149C/C322K/C336Q/C42S/C52S/M527D/S634C); assay: isothermal titration calorimetry; type: binding; conditions: read-out: equilibrium dissociation constant
T1 construct: gene MX1; monomeric full-length-type MxA (M527D) with solvent-exposed cysteines replaced; N-terminal His6-PreScission tag cut, E. coli Rosetta (DE3); SEC peak ~70 kDa
T1 sequence (P20591 1-662 C42S/C52S/A149C/C322K/C336Q/M527D/S634C): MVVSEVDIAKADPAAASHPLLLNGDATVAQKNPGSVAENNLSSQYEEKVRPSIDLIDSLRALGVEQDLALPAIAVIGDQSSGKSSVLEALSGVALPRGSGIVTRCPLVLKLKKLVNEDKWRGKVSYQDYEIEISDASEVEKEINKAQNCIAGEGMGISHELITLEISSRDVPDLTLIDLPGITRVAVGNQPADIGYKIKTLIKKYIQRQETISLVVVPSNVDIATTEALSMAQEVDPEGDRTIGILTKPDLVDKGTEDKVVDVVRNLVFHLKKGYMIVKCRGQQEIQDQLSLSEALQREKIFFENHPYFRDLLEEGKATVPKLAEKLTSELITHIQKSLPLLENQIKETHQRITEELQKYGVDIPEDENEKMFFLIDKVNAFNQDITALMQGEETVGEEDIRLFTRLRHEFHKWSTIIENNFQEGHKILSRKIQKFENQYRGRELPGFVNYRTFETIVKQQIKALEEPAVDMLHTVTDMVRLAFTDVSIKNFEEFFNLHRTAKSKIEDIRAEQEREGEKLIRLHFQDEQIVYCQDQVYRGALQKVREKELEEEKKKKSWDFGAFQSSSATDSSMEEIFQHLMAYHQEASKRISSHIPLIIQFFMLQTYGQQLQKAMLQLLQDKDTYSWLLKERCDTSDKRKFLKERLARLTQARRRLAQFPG
Protocol: (§1) isothermal titration calorimetry on MxA^MO2 | The equilibrium dissociation constants for MxA^MO2-AS and MxA^MO2-RR to GDP and GMPPCP were determined

[2] = molecular target: T2, MxA^MO2 (Homo sapiens, UniProt P20591, C322K/C336Q/C42S/C52S/M527D/R352C/R500C); assay: isothermal titration calorimetry; type: binding; conditions: read-out: equilibrium dissociation constant
T2 construct: gene MX1; monomeric full-length-type MxA (M527D) with solvent-exposed cysteines replaced; N-terminal His6-PreScission tag cut, E. coli Rosetta (DE3); SEC peak ~70 kDa
T2 sequence (P20591 1-662 C42S/C52S/C322K/C336Q/R352C/R500C/M527D): T1 sequence (P20591 1-662 C42S/C52S/A149C/C322K/C336Q/M527D/S634C) with C149A, R352C, R500C, C634S
Protocol: as §1

SMILES | Kd [1] [µM] | Kd [2] [µM]
Nc1nc2c(ncn2[C@@H]2O[C@H](COP(=O)(O)OP(=O)(O)O)[C@@H](O)[C@H]2O)c(=O)[nH]1 [GDP] | 42.6 ± 0.14 | 26.3 ± 0.03
Nc1nc(O)c2ncn([C@@H]3O[C@H](COP(=O)(O)OP(=O)(O)C[P+]([O-])(O)O)[C@@H](O)[C@H]3O)c2n1 [GMPPCP, guanosine-5′-[(β,γ)-methyleno]triphosphate] | 30 ± 0.003 | 14.7 ± 0.13
